Assay results reported in patent publication US5576341A, “2-[[2-(N-isobutyl-N-methyl)amino]benzylsulfinyl]-benzimidazole as antimicrobial agent” (Nippon Chemiphar Co., Ltd., priority 1993, dated 1996).
Converted amounts (≈) assume the structure as drawn.

Columns and labels:
[1] = test system: Helicobacter pylori; details: Antimicrobial Agents and Chemotherapy, March 1991, p.490-496; cited from earlier work
[2] = test system: Helicobacter pylori Wild 1; experiment: MIC by agar plate dilution method (Experimental 2), Wild 1; details: WILD1, 144 h
[3] = test system: Helicobacter pylori ATCC 43629; experiment: MIC by agar plate dilution method (Experimental 2), ATCC 43629; details: ATCC43629, 144 h
[4] = test system: Helicobacter pylori NCTC 11637; experiment: MIC by agar plate dilution method (Experimental 2), NCTC 11637; details: NCTC11637, 144 h
[5] = test system: Helicobacter pylori ATCC 43579; experiment: MIC by agar plate dilution method (Experimental 2), ATCC 43579; details: ATCC43579, 144 h
[6] = test system: Helicobacter pylori Wild 1; experiment: MIC by agar plate dilution method (Experimental 2), Wild 1 (first line); details: WILD1, 144 h
[7] = test system: Helicobacter pylori ATCC 43526; experiment: MIC by agar plate dilution method (Experimental 2), ATCC 43526; details: ATCC43526, 144 h
[8] = test system: Helicobacter pylori; experiment: microbe, parasite or virus in culture; details: 144 h, read-out: MIC (minimal inhibitory concentration)

MIC [2] | MIC [3] | MIC [4] | MIC [5] | MIC [6] | MIC [7] | MIC [8] | SMILES | antimicrobial activity against Helicobacter pylori (in words) [1]
50 µg/mL (≈ 145 µM) | 12.5 µg/mL (≈ 36.2 µM) | 50 µg/mL (≈ 145 µM) | 12.5 µg/mL (≈ 36.2 µM) | 50 µg/mL (≈ 145 µM) | 12.5 µg/mL (≈ 36.2 µM) |  | COc1ccc2[nH]c([S+]([O-])Cc3ncc(C)c(OC)c3C)nc2c1 (stereo not drawn) [Omeprazole] | have antimicrobial activity against Helicobacter pylori
 | 800 µg/mL (≈ 2370 µM) |  | 800 µg/mL (≈ 2370 µM) |  | > 800 µg/mL |  | NC(N)=Nc1nc(CSCCC(N)=NS(N)(=O)=O)cs1 [Famotidine] | 

Continued, molecule first:

SMILES | MIC [2] | MIC [3] | MIC [4] | MIC [5] | MIC [6] | MIC [7] | MIC [8] | antimicrobial activity against Helicobacter pylori (in words) [1]
CN/C(=N/CCSCc1nc[nH]c1C)NC#N [Cimetidine] |  | 800 µg/mL (≈ 3170 µM) |  | 800 µg/mL (≈ 3170 µM) |  | 800 µg/mL (≈ 3170 µM) |  | 
Cc1c(OCC(F)(F)F)ccnc1C[S+]([O-])c1nc2ccccc2[nH]1 (stereo not drawn) [lansoprazole] |  |  |  |  |  |  |  | have antimicrobial activity against Helicobacter pylori
CC(C)CN(C)c1ccccc1C[S+]([O-])c1nc2ccccc2[nH]1 (stereo not drawn) [Compound (1), 2-[[2-(N-isobutyl-N-methyl)amino]benzylsulfinyl]benzimidazole] | 50 µg/mL (≈ 146 µM) | 12.5 µg/mL (≈ 36.6 µM) | 25 µg/mL (≈ 73.2 µM) | 25 µg/mL (≈ 73.2 µM) | 50 µg/mL (≈ 146 µM) | 25 µg/mL (≈ 73.2 µM) | 12.5 µg/mL (≈ 36.6 µM) | 
